No end group written: not given here.
Legend:
[1] = biological target: T1, SIRT2 (Homo sapiens, UniProt Q8IXJ6); assay: Histone deacetylase assay, immunoprecipitated SIRT2-FLAG on [3H]acetylated histone H4 peptide; assay type: biochemical
T1 sequence (Q8IXJ6 1-389): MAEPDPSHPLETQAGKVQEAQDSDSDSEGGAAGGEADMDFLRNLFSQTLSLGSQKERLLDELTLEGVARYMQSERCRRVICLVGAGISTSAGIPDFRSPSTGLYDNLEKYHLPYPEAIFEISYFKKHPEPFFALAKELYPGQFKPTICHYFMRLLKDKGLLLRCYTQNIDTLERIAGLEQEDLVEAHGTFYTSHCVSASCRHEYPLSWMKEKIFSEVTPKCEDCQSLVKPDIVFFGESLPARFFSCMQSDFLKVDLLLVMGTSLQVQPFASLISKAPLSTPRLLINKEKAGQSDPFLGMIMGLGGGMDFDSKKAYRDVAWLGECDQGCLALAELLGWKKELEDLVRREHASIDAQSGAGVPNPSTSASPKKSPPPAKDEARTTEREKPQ
Description: HEK 293T cells were transfected by calcium phosphate DNA precipitation method and lysed 48 hours post-transfection in low stringency lysis buffer (50 mM Tris-HCl, pH 7.5, 0.5 mM EDTA, 0.5% NP-40, 150 mM NaCl) in the presence of protease inhibitor cocktail (Complete, Roche Molecular Biochemicals, Indianapolis, Ind.). FLAG tagged proteins were immunoprecipitated with anti-FLAG M2 agarose affinity gel (Sigma, St. Louis, Mo.) and GFP-tagged proteins were immunoprecipitated with anti-GFP monoclonal antibody (Sigma, St. Louis, Mo.) in the presence of Protein G Sepharose (Amersham Pharmacia Biotech, Inc., Piscataway, N.J.) for 2 hours at 4° C. Immunoprecipitated material was washed 3 times in low stringency lysis buffer and one time in SIRT2 deacetylase buffer (50 mM Tris-HCl, pH 9.0, 4 mM MgCl2, and 0.2 mM dithiothreitol (DTT)).
Immunoprecipitated material and recombinant SIRT2 were resuspended in 100 μL of SIRT2 deacetylase buffer containing NAD (Sigma, St. Louis, Mo.) and [^3H] acetylated histone H4 peptide (a.a. 1-23) (Emiliani et al., 1998). TSA (WACO BioProducts, Richmond, Va.) was resuspended in dimethyl sulfoxide (DMSO) was further diluted in DMSO and added to reactions to desired concentration. […] After centrifugation for 5 minutes, 400 μL of the ethyl acetate fraction was mixed with 5 ml scintillation fluid and counted.

[2] = biological target: T1, SIRT2; assay: Ex vivo tubulin deacetylation assay, SIRT2-FLAG with cellular lysate, western blot for acetylated tubulin; assay type: biochemical; settings: 1 mM NAD
Description: Immunoprecipitations were resuspended in 100 μl SIRT deacetylase buffer containing 50 μg total cellular lysate from untransfected HEK 293T cells and 1 mM NAD. Reactions containing 400 nM TSA or 5 mM nicotinamide (Sigma, St. Louis, Mo.) were pre-incubated at room temperature with all components of the reaction in the absence of NAD for 10 minutes, Following the pre-incubation, the enzymatic reactions were started with the addition of NAD followed by incubation for 2 hours at room temperature with constant agitation. Reactions were stopped by the addition of 50 μl 6× SDS-polyacrylamide gel electrophoresis (PAGE) buffer. Beads were pelleted by centrifugation at 14,000 rpm for 10 minutes and 10 μl of each supernatant was separated on 10% SDS-PAGE gels and western blotted as described above.
In this assay, HEK 293T cells were transfected with SIRT2-FLAG followed by immunoprecipitation of the FLAG-tagged protein (FIG. 3A). The immunoprecipitated material was separated into two fractions. The first fraction was used to measure HDAC activity using the acetylated histone H4 peptide. […] The extent of acetylation/deacetylation of α-tubulin was determined by western blotting analysis using a specific antisera for acetylated α-tubulin. […]

[3] = tested on: GFP-MIZ-1 sub-cellular distribution in HeLa cells; assay: GFP-MIZ-1 sub-cellular localization by immunofluorescence in transfected HeLa cells; assay type: cell-based; settings: for percentage of cells with GFP-MIZ-1 localized in the cytoplasm: TSA treatment
Description: HeLa cells grown on coverslips were transfected with LipofectAMINE reagent (Gibco Invitrogen Corp., Carlsbad, Calif.) for 8 hours according to manufacturer's protocol or by calcium phosphate DNA precipitation method. Transfected cells were incubated for 12 hours with 400 nM TSA (WACO BioProducts, Richmond, Va.) 24 hours after transfection. Cells were washed twice for 10 minutes in PBS and fixed for 10 minutes in 4% formaldehyde (EMS, Ft. Washington, Pa.) followed by permeabilization for 10 minutes in 0.5% Triton-X-100 in PBS. Following three washes for 10 minutes in PBS, cells were incubated for 10 minutes in 10% BSA, and incubated for 1 hour with anti-acetylated tubulin 6-11B-1, anti-tubulin B-5-1-2 diluted 1:1000, or anti-FLAG M2 diluted 1:500 in 0.1% TWEEN-20™ non-ionic detergent. Cells were washed three times in 0.1% TWEEN-20™ non-ionic detergent, followed by incubation with goat anti-mouse IgG (Fc specific) TRITC-conjugated antibody (Sigma, St. Louis) diluted 1:100 in 0.1% TWEEN-20™ non-ionic detergent. Following incubation cells were incubated for 5 minutes in 20 mg/ml 4′,6′-diamidino-2-phenylindole hydrochloride (DAPI) washed three times in phosphate-buffered saline (PBS), once in ddH2O, and mounted with Gel Mount (Biomeda Corp., Foster City, Calif.). Slides were visualized on a Nikon E600 microscope system equipped with a SPOT 2 Digital Camera. Confocal images were acquired by laser-scanning confocal microscopy with an Olympus BX60 microscope equipped with a Radiance 2000 confocal setup (BioRad, Hercules, Calif.).
Transfected cells were counted as either GFP-MIZ-1 localized completely nuclear or with partial cytoplasmic retention. Cell counts were derived from inspection of at least 150 transfected cells from six microscopic fields. […] Data set is representative of three independent experiments.

[4] = tested on: α-tubulin; settings: treatment of cells with TSA; cited from earlier work
[5] = tested on: SIRT1 protein; settings: cited from earlier work
[6] = tested on: acetylated tubulin in HeLa, 293T and HepG2 cells; assay: Microtubule destabilizing drug treatment, western blot for acetylated tubulin; assay type: cell-based; settings: 10 μg/mL colchicine or 1 μg/mL nocodazole for 6 hours
Description: Lysates were equilibrated by total protein concentration and were separated on 10% SDS-PAGE gels and western blotted as described above.
Cells were harvested and lysates separated by SDS-PAGE and western blotting using specific antisera for acetylated tubulin and tubulin.

[7] = biological target: recombinant Hst2p (Saccharomyces cerevisiae, UniProt P53686); assay: Tubulin peptide deacetylation kinetics (HPLC); assay type: biochemical, yeast; settings: 500 μM NAD, 37° C.
Sequence of recombinant Hst2p (P53686 whole entry): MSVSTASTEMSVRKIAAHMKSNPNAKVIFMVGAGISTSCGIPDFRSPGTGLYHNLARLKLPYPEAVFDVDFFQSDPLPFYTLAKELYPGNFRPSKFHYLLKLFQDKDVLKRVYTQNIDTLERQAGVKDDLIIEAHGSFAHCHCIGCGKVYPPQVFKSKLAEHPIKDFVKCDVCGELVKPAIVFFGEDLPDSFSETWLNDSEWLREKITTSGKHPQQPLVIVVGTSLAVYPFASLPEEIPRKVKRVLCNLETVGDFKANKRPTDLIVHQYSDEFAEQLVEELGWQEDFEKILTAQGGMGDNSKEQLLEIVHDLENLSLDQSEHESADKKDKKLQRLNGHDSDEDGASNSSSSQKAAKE
Description: Increasing concentrations of tubulin peptide (20-900 μM), and 800 μM NAD were reacted in the presence of 0.8 to 1 μM recombinant SIRT2 in 50 mM Tris, pH 7.5, 1 mM DTT, and 10% methanol at 37° C. For Hst2p reactions, tubulin peptides and 500 μM NAD were reacted in the presence of 9 to 19 μM recombinant Hst2p under the same conditions. Reactions were quenched with trifluoroacetic acid (TFA) to a final concentration of 1%. Time points were chosen such that initial velocity conditions were observed. Samples were injected into the high performance liquid chromatography (HPLC) with a Beckman C18 analytical column. Upon injection, the system was run isocratically with solvent A (0.05% TFA in H2O), followed by a gradient of 0-10% solvent B (0.02% TFA in CH3CN) for 4 minutes, and followed by a gradient of 10-23% solvent B for 23 minutes. Deacetylated and acetylated peptides eluted at 16% and 18% CH3CN, respectively. Elution of substrates and products were monitored by measuring the absorbance at 214 nm, and corresponding peaks were integrated using the Beckman System Gold Nouveau software. The amount of product was quantified by calculating the percentage of the deacetylated tubulin peptide from the total tubulin peptide based upon their integration values. […]

[8] = biological target: T1, SIRT2; assay: Tubulin peptide deacetylation kinetics (HPLC); assay type: biochemical; design: 6xHis; factor Xa protease cleavage site; made in house; host or cells: E. coli DH5αFIQ; settings: SIRT2, 800 μM NAD, 37° C.
[9] = biological target: T1, SIRT2; assay: In vitro HDAC activity assay with recombinant protein (ribavirin); assay type: biochemical; design: 6xHis; factor Xa protease cleavage site; made in house; host or cells: E. coli DH5αFIQ
Description: (§1) Inhibitory activity of ribavirin against SIRT2 and SIRT3 proteins was tested using recombinant SIRT2 proteins and an in vitro assay. Ribavirin was incubated with recombinant protein only in buffer for 10 minutes; then NAD and substrate were added to start the reaction. Reactions were incubated for 2 hours at room temperature. Reactions were stopped by adding 25 μL stop buffer (0.1M HC1, 0.16M acetic acid) and vortexing briefly. Ethyl acetate extraction isolated any liberated acetyl groups. Ethyl acetate (0.5 ml) was added, mixture was vortexed for 15 seconds and spun at 14,000 rpm for 5 minutes. The upper phase (0.4 ml) was added to 5 mL scintillation fluid (Econofluor-2; Packard) and counted.

[10] = biological target: SIRT3 (Homo sapiens, UniProt Q9NTG7); assay: as above; assay type: biochemical
Sequence of SIRT3 (Q9NTG7 whole entry): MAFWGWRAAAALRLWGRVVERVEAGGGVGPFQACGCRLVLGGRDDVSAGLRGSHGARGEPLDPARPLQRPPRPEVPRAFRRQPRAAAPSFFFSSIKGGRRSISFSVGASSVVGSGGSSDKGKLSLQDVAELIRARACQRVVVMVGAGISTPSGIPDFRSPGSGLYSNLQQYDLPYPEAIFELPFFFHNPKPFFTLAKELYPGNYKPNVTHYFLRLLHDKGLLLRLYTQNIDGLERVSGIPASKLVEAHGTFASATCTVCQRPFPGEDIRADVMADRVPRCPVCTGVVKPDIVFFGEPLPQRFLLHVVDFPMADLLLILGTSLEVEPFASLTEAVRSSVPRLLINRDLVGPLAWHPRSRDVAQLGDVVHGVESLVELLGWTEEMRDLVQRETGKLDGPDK
Description: as §1

**Q.** What does the source list for `CC(/C=C/C(=O)NO)=C\[C@@H](C)C(=O)c1ccc(N(C)C)cc1` [TSA, Trichostatin A]?
**A.** HDAC activity of SIRT2 ([1]; immunoprecipitated SIRT2-FLAG, 1 mM NAD, increasing concentrations of TSA (100-1600 nM)): No change; tubulin deacetylation by SIRT2 ([2]; 400 nM TSA): had no effect; localization of GFP-MIZ-1 ([3]; HeLa cells treated with TSA (400 nM, 12 hours)): distinct shift in localization of GFP-MIZ-1 from the nucleus to the cytoplasm; percentage of cells with GFP-MIZ-1 localized in the cytoplasm ([3]; co-transfected with FLAG empty vector): 36.9%; percentage of cells with GFP-MIZ-1 localized in the cytoplasm ([3]; co-transfected with SIRT2-FLAG wild-type): 11.2%; percentage of cells with GFP-MIZ-1 localized in the cytoplasm ([3]; co-transfected with catalytically inactive SIRT2-FLAG N168A): 35.3%; acetylation of α-tubulin in cells [4]: induces hyperacetylation

**Q.** Which “HDAC activity of SIRT2” value ([1]; increasing concentrations of nicotinamide, 156 μM to 20 mM) does the source give for `NC(=O)c1cccnc1` [nicotinamide] here?
**A.** dose dependent decrease

**Q.** What about the “inhibition of SIRT1” value [5] of the same compound?
**A.** effective inhibitor

**Q.** What about the “tubulin deacetylation by SIRT2” value ([2]; 5 mM nicotinamide) of the same compound?
**A.** completely inhibited

**Q.** For `COC(=O)Nc1nc2ccc(C(=O)c3cccs3)cc2[nH]1` [nocodazole], which “acetylation state of tubulin” value [6] is on record?
**A.** tubulin deacetylation

**Q.** For “acetylated tubulin peptide: 9-amino acid synthetic α-tubulin peptide (MPSD(AcK)TIGG), acetylated on lysine-40 (MPSDK(Ac)TIGG)”, which V/K [7] is on record?
**A.** 14.9 M⁻¹ s⁻¹

**Q.** What about the kcat [7] of the same compound?
**A.** 0.00254 ± 0.0003 s⁻¹

**Q.** And the V/K [8]?
**A.** 894 ± 100 M⁻¹ s⁻¹

**Q.** And the kcat [8]?
**A.** 0.144 ± 0.005 s⁻¹

**Q.** For `NC(=O)c1ncn([C@@H]2O[C@H](CO)[C@@H](O)[C@H]2O)n1` [Ribavirin, 1-β-D-ribofuranosyl-1H-1,2,4-triazole-3-carboxamide], which inhibition at 25 µM [9] is on record?
**A.** ~50%

**Q.** What about the “effect on SIRT3 in vitro HDAC activity” value [10] of the same compound?
**A.** no effect

Source: patent publication US7884081B2, “Methods of modulating tubulin deacetylast activity” (The J. David Gladstone Institutes, priority 2002, dated 2011)
